Counter-ions that a name gives are not always drawn. Like-named read-outs stand apart in the source and are kept apart here.
Biological target: GCN2 (Homo sapiens, UniProt Q9P2K8)
Assay: GCN2 enzymatic endpoint assay: phosphorylation of GFP-eIF2α measured by TR-FRET (Lanthascreen)
Format: biochemical
How it was run: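 Kinase activity is measured as phosphorylation of GFP-labelled eIF2α (80 nM) with ATP at 2 μM. Incubation runs 90 minutes at room temperature before EDTA quench and terbium-antibody detection.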

[1] = tested as described in Example 77, compound and/or hydrochloride, dihydrochloride or trifluoroacetic acid salt, read-out: IC 50 Activity
[2] = GCN2 biochemical IC50, 4 nM GCN2, 2 μM ATP, 80 nM GFP-eIF2α, 90 min RT, read-out: GCN2 activity

Chain of GCN2 (Q9P2K8 whole entry): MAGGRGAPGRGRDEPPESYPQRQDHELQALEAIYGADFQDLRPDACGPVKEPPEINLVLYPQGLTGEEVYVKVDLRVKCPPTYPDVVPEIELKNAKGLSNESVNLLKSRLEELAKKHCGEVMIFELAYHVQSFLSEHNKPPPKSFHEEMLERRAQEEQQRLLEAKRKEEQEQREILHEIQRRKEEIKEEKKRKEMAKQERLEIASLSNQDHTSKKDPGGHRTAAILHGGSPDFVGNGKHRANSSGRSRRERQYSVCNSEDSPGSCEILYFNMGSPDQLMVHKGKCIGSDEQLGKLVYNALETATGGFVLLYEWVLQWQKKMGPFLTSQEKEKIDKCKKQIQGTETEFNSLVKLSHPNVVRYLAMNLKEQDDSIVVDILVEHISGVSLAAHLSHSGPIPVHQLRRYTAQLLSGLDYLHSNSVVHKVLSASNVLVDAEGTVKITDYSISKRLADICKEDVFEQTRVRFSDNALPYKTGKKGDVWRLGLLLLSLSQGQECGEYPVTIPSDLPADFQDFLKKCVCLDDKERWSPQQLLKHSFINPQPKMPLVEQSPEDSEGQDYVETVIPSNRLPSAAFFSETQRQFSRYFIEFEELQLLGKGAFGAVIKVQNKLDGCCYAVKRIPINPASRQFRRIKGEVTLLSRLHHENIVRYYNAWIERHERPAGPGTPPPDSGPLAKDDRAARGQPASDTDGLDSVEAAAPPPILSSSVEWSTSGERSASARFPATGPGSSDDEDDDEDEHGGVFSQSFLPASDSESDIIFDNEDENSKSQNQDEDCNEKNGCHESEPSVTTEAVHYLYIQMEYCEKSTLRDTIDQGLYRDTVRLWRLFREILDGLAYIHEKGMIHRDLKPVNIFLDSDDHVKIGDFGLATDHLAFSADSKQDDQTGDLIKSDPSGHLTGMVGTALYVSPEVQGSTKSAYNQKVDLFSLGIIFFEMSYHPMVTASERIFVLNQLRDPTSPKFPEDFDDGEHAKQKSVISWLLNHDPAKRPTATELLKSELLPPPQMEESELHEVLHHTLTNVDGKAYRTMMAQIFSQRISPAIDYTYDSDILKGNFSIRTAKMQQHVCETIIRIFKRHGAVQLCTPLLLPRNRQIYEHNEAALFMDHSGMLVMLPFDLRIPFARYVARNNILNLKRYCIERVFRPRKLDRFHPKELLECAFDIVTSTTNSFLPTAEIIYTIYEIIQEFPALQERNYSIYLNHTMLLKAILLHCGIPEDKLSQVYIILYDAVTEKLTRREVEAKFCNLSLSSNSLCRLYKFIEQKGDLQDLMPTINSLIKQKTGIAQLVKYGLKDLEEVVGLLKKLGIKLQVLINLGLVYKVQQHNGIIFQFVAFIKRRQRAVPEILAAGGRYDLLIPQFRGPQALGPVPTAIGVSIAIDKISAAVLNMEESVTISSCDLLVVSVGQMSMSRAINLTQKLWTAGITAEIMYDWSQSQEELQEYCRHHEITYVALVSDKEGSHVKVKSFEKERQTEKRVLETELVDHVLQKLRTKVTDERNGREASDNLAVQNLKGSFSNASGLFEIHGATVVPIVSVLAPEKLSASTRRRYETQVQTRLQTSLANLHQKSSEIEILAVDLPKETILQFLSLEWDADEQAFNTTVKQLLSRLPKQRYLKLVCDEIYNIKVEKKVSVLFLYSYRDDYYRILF

`CNC(=O)[C@]1(C)CC[C@@H](Nc2ncc3c(Br)nn(-c4cc(CCNC(=O)C(C)C)c5ncccc5c4)c3n2)C1` [(1R,3R)-3-[[3-bromo-1-[8-[2-(2-methyl-propanoylamino)ethyl]-6-quinolyl]pyrazolo [3,4-d]pyrimidin-6-yl]amino]-N,1-dimethyl-cyclopentanecarboxamide] gave an IC50 [1] of 25 to 200 nM.

Work on `CNC(=O)[C@]1(C)CC[C@@H](Nc2ncc3c(Br)nn(-c4cc(C5CNCCO5)c5ncccc5c4)c3n2)C1` (stereo partly drawn) [(1R,3R)-3-[[3-bromo-1-(8-morpholin-2-yl-6-quinolyl)pyrazolo[3,4-d]pyrimidin-6-yl]amino]-N,1-dimethyl-cyclopentane-carboxamide] yielded an IC50 [1] of 25 to 200 nM.

In the case of `COCCNC(=O)[C@]1(C)CC[C@@H](Nc2ncc3c(Br)nn(-c4ccc(-c5nnc(C)s5)cc4)c3n2)C1` [(1R,3R)-3-[[3-bromo-1-[4-(5-methyl-1,3,4-thiadiazol-2-yl)phenyl]pyrazolo [3,4-d]pyrimidin-6-yl]amino]-N-(2-methoxyethyl)-1-methyl-cyclopentane-carboxamide], the IC50 [1] is reported as 25 to 200 nM.

For `O=C([C@@H]1CC[C@@H](Nc2ncc3c(Br)nn(-c4ccc5ncccc5c4)c3n2)C1)N1CC2(CCNC2)C1` [((1R,3R)-3-((3-bromo-1-(quinolin-6-yl)-1H-pyrazolo[3,4-d]pyrimidin-6-yl)amino)cyclo-pentyl)(2,6-diazaspiro[3.4]octan-2-yl) methanone], the IC50 [1] was 25 to 200 nM.

`CNC(=O)[C@]1(C)CC[C@@H](Nc2ncc3c(Br)nn(-c4cc(F)cc(CCO)c4)c3n2)C1` [(1R,3R)-3-[[3-bromo-1-[3-fluoro-5-(2-hydroxyethyl)phenyl]pyrazolo [3,4-d]pyrimidin-6-yl]amino]-N,1-dimethyl-cyclopentanecarboxamide] gave an IC50 [1] of under 25 nM.

For `CC1(C(=O)NC2CCOCC2)CC(Nc2ncc3c(Br)nn(-c4ccc5ncccc5c4)c3n2)C1` (centres unmarked), the IC50 [1] was 25 to 200 nM.

With `O=C([C@@H]1CC[C@@H](Nc2ncc3c(Br)nn(-c4ccc5ncccc5c4)c3n2)C1)N1CCOCC1` [((1R,3R)-3-((3-bromo-1-(quinolin-6-yl)-1H-pyrazolo[3,4-d]pyrimidin-6-yl)amino)cyclo-pentyl)(morpholino)methanone] the IC50 [1] was 25 to 200 nM.

With `CNC(=O)[C@]1(F)CC[C@@H](Nc2ncc3c(Br)nn(-c4cc(F)c5ncccc5c4)c3n2)C1` [(1S,3R)-3-[[3-bromo-1-(8-fluoro-6-quinolyl)pyrazolo[3,4-d]pyrimidin-6-yl]amino]-1-fluoro-N-methyl-cyclopentanecarboxamide] the IC50 [1] was 25 to 200 nM.

Compound `CNC(=O)[C@@]1(C)CC[C@@H](Nc2ncc3c(Br)nn(-c4ccc5ncc(CCO)cc5c4)c3n2)C1` [(1S,3R)-3-[[3-bromo-1-[3-(2-hydroxy-ethyl)-6-quinolyl]pyrazolo[3,4-d]pyrimidin-6-yl]amino]-N,1-dimethyl-cyclopentanecarboxamide] has an IC50 [1] of under 25 nM.

`Cc1nnc(-c2ccc(-n3nc(Br)c4cnc(N[C@@H]5CC[C@@H](NC(=O)[C@@H]6CCCCN6)C5)nc43)cc2)s1` showed an IC50 [1] of 25 to 200 nM.

`CNC(=O)[C@]1(C)CC[C@@H](Nc2ncc3c(Br)nn(-c4cc(CCO)c5ncccc5c4)c3n2)C1` [Example 29, (1R,3R)-3-((3-bromo-1-(8-(2-hydroxyethyl)quinolin-6-yl)-1H-pyrazolo[3,4-d]pyrimidin-6-yl)amino)-N,1-dimethylcyclopentane-1-carboxamide hydrochloride] gave an IC50 [2] of under 25 nM.

In the case of `Cc1nnc(-c2ccc(-n3nc(Br)c4cnc(N[C@@H]5CC[C@@H](NC(=O)[C@H]6CCCCN6)C5)nc43)cc2)s1`, the IC50 [1] is reported as 25 to 200 nM.

Compound `CNC(=O)[C@]1(C)CC[C@@H](Nc2ncc3c(Br)nn(-c4ccc(-c5cnn(C)c5)cc4)c3n2)C1` [(1R,3R)-3-[[3-bromo-1-[4-(1-methyl-pyrazol-4-yl)phenyl]pyrazolo[3,4-d]pyrimidin-6-yl]amino]-N,1-dimethyl-cyclopentanecarboxamide] has an IC50 [1] of 25 to 200 nM.

Compound `CNC(=O)[C@]1(C)CC[C@@H](Nc2ncc3c(Br)nn(-c4cc(C5=CCNC5)c5ncccc5c4)c3n2)C1` [(1R,3R)-3-[[3-bromo-1-[8-(2,5-dihydro-1H-pyrrol-3-yl)-6-quinolyl]pyrazolo [3,4-d]pyrimidin-6-yl]amino]-N,1-dimethyl-cyclopentanecarboxamide] has an IC50 [1] of 25 to 200 nM.

`CC[C@H](N)c1cc(Cl)cc(-n2nc(Br)c3cnc(N[C@@H]4CC[C@@](C)(C(=O)NC)C4)nc32)c1` showed an IC50 [1] of 25 to 200 nM.

`COCCNC(=O)[C@@H]1CC[C@@H](Nc2ncc3c(Br)nn(-c4ccc(-c5ncco5)cc4)c3n2)C1` [Example 26, (1R,3R)-3-((3-bromo-1-(4-(oxazol-2-yl)phenyl)-1H-pyrazolo[3,4-d]pyrimidin-6-yl)amino)-N-(2-methoxyethyl)cyclopentane-1-carboxamide] gave an IC50 [2] of 25 to 200 nM.

With `COCCNC(=O)[C@@H]1CC[C@@H](Nc2ncc3c(Br)nn(-c4ccc5cnccc5c4)c3n2)C1` [Example 6, (1R,3R)-3-((3-bromo-1-(isoquinolin-6-yl)-1H-pyrazolo[3,4-d]pyrimidin-6-yl)amino)-N-(2-methoxyethyl)cyclopentane-1-carboxamide] the IC50 [2] was 25 to 200 nM.

`CNC(=O)[C@@H]1CC[C@@H](Nc2ncc3c(Br)nn(-c4cc(C(F)F)c5ncccc5c4)c3n2)C1` [(1R,3R)-3-((3-bromo-1-(8-(difluoromethyl)quinolin-6-yl)-1H-pyrazolo[3,4-d]pyrimidin-6-yl)amino)-N-methylcyclopentane-1-carboxamide] gave an IC50 [1] of 25 to 200 nM.

`C[C@@]1(C(=O)N2CCN3C(=O)CC[C@@H]3C2)CC[C@@H](Nc2ncc3c(Br)nn(-c4cc(F)c5ncccc5c4)c3n2)C1` gave an IC50 [1] of 25 to 200 nM.

Compound `CNC(=O)[C@]1(C)CC[C@@H](Nc2ncc3c(Br)nn(-c4ccc(-c5nnc(C6CC6)o5)cc4)c3n2)C1` [(1R,3R)-3-[[3-bromo-1-[4-(5-cyclopropyl-1,3,4-oxadiazol-2-yl)phenyl]pyrazolo[3,4-d]pyrimidin-6-yl]amino]-N,1-dimethyl-cyclopentane-carboxamide] has an IC50 [1] of 25 to 200 nM.

`CNC(=O)[C@]1(C)CCC(Nc2ncc3c(Br)nn(-c4cnc(-c5nnc(C)s5)c(Cl)c4)c3n2)C1` (stereo partly drawn) [(1R)-3-[[3-bromo-1-[5-chloro-6-(5-methyl-1,3,4-thiadiazol-2-yl)-3-pyridyl]pyrazolo [3,4-d]pyrimidin-6-yl]amino]-N,1-dimethyl-cyclopentanecarboxamide] was tested, and the IC50 [1] was 25 to 200 nM.

With `CNC(=O)[C@]1(C)CC[C@@H](Nc2ncc3c(Br)nn(-c4cc(Cl)cc(C5CN(C)C(=O)CO5)c4)c3n2)C1` (stereo partly drawn) [(1R,3R)-3-[[3-bromo-1-[3-chloro-5-(4-methyl-5-oxo-morpholin-2-yl)phenyl]pyrazolo[3,4-d]pyrimidin-6-yl]amino]-N,1-dimethyl-cyclopentane-carboxamide] the IC50 [1] was 25 to 200 nM.

For `CNC(=O)[C@]1(C)CC[C@@H](Nc2ncc3c(Br)nn(-c4ccc5ncncc5c4)c3n2)C1` [(1R,3R)-3-[(3-bromo-1-quinazolin-6-yl-pyrazolo[3,4-d]pyrimidin-6-yl)amino]-N,1-dimethyl-cyclopentane-carboxamide], the IC50 [1] was 25 to 200 nM.

Compound `CNC(=O)[C@]1(C)CC[C@@H](Nc2ncc3c(Br)nn(-c4cc(CCN5CCOCC5)c5ncccc5c4)c3n2)C1` [(1R,3R)-3-[[3-bromo-1-[8-(2-morpholinoethyl)-6-quinolyl]pyrazolo [3,4-d]pyrimidin-6-yl]amino]-N,1-dimethyl-cyclopentanecarboxamide] has an IC50 [1] of 25 to 200 nM.

Compound `CNC(=O)[C@]1(C)CC[C@@H](Nc2ncc3c(Br)nn(-c4cccc(Oc5ccncc5)c4)c3n2)C1` [(1R,3R)-3-[[3-bromo-1-[3-(4-pyridyloxy)phenyl]pyrazolo[3,4-d]pyrimidin-6-yl]amino]-N,1-dimethyl-cyclopentane-carboxamide] has an IC50 [1] of 25 to 200 nM.

Work on `CNC(=O)[C@]1(CC(F)F)CC[C@@H](Nc2ncc3c(Br)nn(-c4ccc(-c5nnc(C)s5)c(CCC#N)c4)c3n2)C1` [Example 53, (1R,3R)-3-((3-bromo-1-(3-(2-cyanoethyl)-4-(5-methyl-1,3,4-thiadiazol-2-yl)phenyl)-1H-pyrazolo[3,4-d]pyrimidin-6-yl)amino)-1-(2,2-difluoroethyl)-N-methylcyclopentane-1-carboxamide; 2,2,2-trifluoroacetic acid] yielded an IC50 [2] of 25 to 200 nM.

`N#Cc1cc(-n2nc(Br)c3cnc(N[C@@H]4CC[C@@H](C(=O)N=S5(=O)CCNCC5)C4)nc32)cc2cccnc12` gave an IC50 [1] of 25 to 200 nM.

`CNC(=O)[C@]1(C)CC[C@@H](Nc2ncc3c(Br)nn(-c4ccc5ncnn5c4)c3n2)C1` [(1R,3R)-3-[[3-bromo-1-([1,2,4]triazolo[1,5-a]pyridin-6-yl)pyrazolo[3,4-d]pyrimidin-6-yl]amino]-N,1-dimethyl-cyclopentane-carboxamide] was tested, and the IC50 [1] was 25 to 200 nM.

`C[C@H]1COCCN1C(=O)[C@@H]1CC[C@@H](Nc2ncc3c(Br)nn(-c4ccc5ncccc5c4)c3n2)C1` [((1R,3R)-3-((3-bromo-1-(quinolin-6-yl)-1H-pyrazolo[3,4-d]pyrimidin-6-yl)amino)cyclopentyl)((S)-3-methylmorpholino) methanone] showed an IC50 [1] of 25 to 200 nM.

`CNC(=O)[C@@H]1CC[C@@H](Nc2ncc3c(Br)nn(-c4ccc5ncccc5c4)c3n2)C1` [(1R,3R)-3-[[3-bromo-1-(6-quinolyl)pyrazolo[3,4-d]pyrimidin-6-yl]amino]-N-methyl-cyclopentanecarboxamide] was tested, and the IC50 [1] was 25 to 200 nM.

`CNC(=O)[C@]1(C)CC[C@@H](Nc2ncc3c(Br)nn(-c4cc(Cl)cc([C@H]5COC(=O)N5)c4)c3n2)C1` [(1R,3R)-3-[[3-bromo-1-[3-chloro-5-[(4S)-2-oxooxazolidin-4-yl]phenyl]pyrazolo[3,4-d]pyrimidin-6-yl]amino]-N,1-dimethyl-cyclopentanecarboxamide] gave an IC50 [1] of 25 to 200 nM.

With `CNC(=O)[C@]1(C)CC[C@@H](Nc2ncc3c(Br)nn(-c4ccc(-c5ncco5)c(C(C)(C)CN)c4)c3n2)C1` [(1R,3R)-3-[[1-[3-(2-amino-1,1-dimethyl-ethyl)-4-oxazol-2-yl-phenyl]-3-bromo-pyrazolo[3,4-d]pyrimidin-6-yl]amino]-N,1-dimethyl-cyclopentanecarboxamide] the IC50 [1] was 25 to 200 nM.

Reference: patent US11046699B2, “Pyrazolo-pyrimidin-amino-cycloalkyl compounds and their therapeutic uses” (RAPT THERAPEUTICS, INC., priority 2018, dated 2021)
